Read-outs that look alike come from different tables or passages of the source.
Columns and labels:
[1] = system: HT-1080 cells expressing IDH1R132C; experiment: 2-HG production inhibitory activity using HT1080 cell; type: cell-based, human; conditions: Homo sapiens
Description: Then, 100 μL of growth medium B was added to each well, further 25 μL of a solution of each compound diluted to a predetermined concentration with growth medium B was added to each well, and the cells were incubated at 37° C. for 2 days under 5% CO2. […] Then, 150 μL of ultrapure water was further added to each well, and the mixture was stirred by pipetting and stored at −20° C.
The preserved solutions were thawed at room temperature.

[2] = molecular target: IDH1R132C (Homo sapiens (Human), UniProt O75874, R132C); experiment: Inhibitory activity against IDH1R132C enzyme (NADPH detection, WST-8); type: biochemical; conditions: 10 nM, residual NADPH detected with WST-8, read-out: Test Example 1 IDH1 R132C IC50
Description: After transformation of Rosetta 2 (DE3) E. coli, the expression of the protein was induced with IPTG.
While NADPH-derived fluorescence was occasionally monitored, the reaction was terminated by the addition of 5 μL of 0.5 M EDTA before consumption of NADPH. 5 μL of WST-8 reagent (Dojindo Laboratories, #CK04) was further added and mixed therewith. 15 minutes later, the absorbance at 450 nm was measured using a plate reader (PerkinElmer, Inc., EnVision). The observed absorbance value reflects the amount of residual NADPH. From the absorbance data, the enzyme inhibitory activity of each compound at each concentration was calculated and analyzed using medical statistical analysis software GraphPad Prism to calculate an IC50 value.

[3] = HT-1080, 2-HG production, HT1080 cells, read-out: Test Example 3 IC50

IDH1R132C, sequence (O75874 whole entry R132C): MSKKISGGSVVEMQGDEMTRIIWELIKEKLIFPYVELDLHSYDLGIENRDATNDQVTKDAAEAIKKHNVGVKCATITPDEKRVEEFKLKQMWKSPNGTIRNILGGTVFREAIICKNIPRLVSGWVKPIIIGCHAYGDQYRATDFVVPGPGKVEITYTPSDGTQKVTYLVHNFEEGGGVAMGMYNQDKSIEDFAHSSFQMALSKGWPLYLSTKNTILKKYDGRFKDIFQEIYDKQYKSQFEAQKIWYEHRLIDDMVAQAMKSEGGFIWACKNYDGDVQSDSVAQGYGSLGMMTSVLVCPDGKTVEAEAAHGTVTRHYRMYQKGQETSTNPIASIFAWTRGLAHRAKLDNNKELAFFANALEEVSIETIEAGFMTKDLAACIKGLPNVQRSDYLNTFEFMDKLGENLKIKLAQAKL

Row | Structure (SMILES) | IC50 [1, 3] | IC50 [2] | IC50 ([1]; HT-1080, read-out: Test Example 3 IC50 (nM))
1 | COC1(c2onc(-c3c(F)cc(Cl)cc3Cl)c2C(=O)n2cc(C)c3c(/C=C/C(=O)O)cccc32)CCC1 [Example 14, (2E)-3-(1-{[3-(2,4-Dichloro-6-fluorophenyl)-5-(1-methoxycyclobutyl)-1,2-oxazol-4-yl]carbonyl}-3-methyl-1H-indol-4-yl]prop-2-enoic acid] | 32 nM | 110 nM | 
2 | CC(C)(C)c1onc(-c2c(Cl)cccc2Br)c1C(=O)n1ccc2c(/C=C/C(=O)O)cccc21 [Example 39, (2E)-3-(1-{[3-(2-Bromo-6-chlorophenyl)-5-(tert-butyl)-1,2-oxazol-4-yl]carbonyl}-1H-indol-4-yl)prop-2-enoic acid] | 389 nM | 168 nM | 
3 | COC1(c2onc(-c3c(Cl)cccc3Cl)c2C(=O)n2ccc3c(/C=C/C(=O)O)cccc32)COC1 [Example 76, (2E)-3-(1-{[3-(2,6-Dichlorophenyl)-5-(3-methoxyoxetan-3-yl)-1,2-oxazol-4-yl]carbonyl}-1H-indol-4-yl)prop-2-enoic acid] | 118 nM | 94 nM | 
4 | CC(C)c1onc(-c2c(Cl)cccc2Cl)c1C(=O)n1ccc2c(/C=C/C(=O)O)cccc21 [Example 23, (2E)-3-(1-{[3-(2,6-Dichlorophenyl)-5-(propan-2-yl)-1,2-oxazol-4-yl]carbonyl}-1H-indol-4-yl)prop-2-enoic acid] | 709 nM | 75 nM | 
5 | COC(C)(C)c1onc(-c2c(Cl)cccc2Cl)c1C(=O)n1ccc2c(/C=C/C(=O)O)cccc21 [Example 27, (2E)-3-(1-{[3-(2,6-Dichlorophenyl)-5-(2-methoxypropan-2-yl)-1,2-oxazol-4-yl]carbonyl}-1H-indol-4-yl)prop-2-enoic acid] | 128 nM | 160 nM | 
6 | C=CC(=O)N1CCC(c2onc(-c3c(Cl)cccc3Cl)c2C(=O)n2ccc3c(/C=C/C(=O)O)cccc32)CC1 [Example 102] | 50 nM | 117 nM | 
7 | C=CC(=O)N1CCC(C)(c2onc(-c3c(Cl)cc(Cl)cc3Cl)c2C(=O)n2ccc3c(/C=C/C(=O)O)cccc32)CC1 [Example 111] | 10 nM | 188 nM | 
8 | Cn1cc(C(=O)c2c(-c3c(Cl)cc(Cl)cc3Cl)noc2C2(C)CC2)c2cccc(/C=C/C(=O)O)c21 [Example 165] | 186 nM | 81 nM | 
9 | Cc1cn(C(=O)c2c(-c3c(Cl)cc(Cl)cc3Cl)noc2C2(N)CCC2)c2cccc(/C=C/C(=O)O)c12 [Example 90, (2E)-3-(1-{[5-(1-Aminocyclobutyl)-3-(2,4,6-trichlorophenyl)-1,2-oxazol-4-yl]carbonyl}-3-methyl-1H-indol-4-yl)prop-2-enoic acid] | 36 nM | 59 nM | 
10 | C=CC(=O)N1CCC(c2noc(-c3c(Cl)cc(Cl)cc3Cl)c2C(=O)n2ccc3c(/C=C/C(=O)O)cccc32)CC1 [Example 132, (2E)-3-(1-{[3-(1-Acryloylpiperidin-4-yl)-5-(2,4,6-trichlorophenyl)-1,2-oxazol-4-yl]carbonyl}-1H-indol-4-yl)prop-2-enoic acid] | 28 nM | 279 nM | 
11 | C=CC(=O)N1CCCC(c2onc(-c3c(Cl)cc(Cl)cc3Cl)c2C(=O)n2ccc3c(/C=C/C(=O)O)cccc32)C1 (stereo not drawn) [Example 96] | 290 nM | 422 nM | 
12 | CC(C)(F)c1onc(-c2ccc(Cl)c(F)c2Cl)c1C(=O)n1cc2c3c(cccc31)/C(=C/C(=O)O)CC2 [Example 20, (2E)-[1-{[3-(2,4-Dichloro-3-fluorophenyl)-5-(2-fluoropropan-2-yl)-1,2-oxazol-4-yl]carbonyl}-3,4-dihydrobenzo[cd]indol-5(1H)-ylidene]ethanoic acid] | 435 nM | 267 nM | 
13 | CCN(CC)c1onc(-c2c(Cl)cccc2Cl)c1C(=O)n1ccc2c(/C=C/C(=O)O)cccc21 [Example 134, (2E)-3-(1-{[3-(2,6-Dichlorophenyl)-5-(diethylamino)-1,2-oxazol-4-yl]carbonyl}-1H-indol-4-yl)prop-2-enoic acid] | 347 nM | 143 nM | 
14 | O=C(O)/C=C/c1cccc2c1ccn2C(=O)c1c(-c2c(Cl)cccc2Cl)noc1N1CCOCC1 [Example 136, (2E)-3-(1-{[3-(2,6-Dichlorophenyl)-5-(morpholin-4-yl)-1,2-oxazol-4-yl]carbonyl}-1H-indol-4-yl)prop-2-enoic acid] | 335 nM | 140 nM | 
15 | Cc1cn(C(=O)c2c(-c3c(Cl)cc(Cl)cc3Cl)noc2C2(CN(C)C)CCC2)c2cccc(/C=C/C(=O)O)c12 [Example 88, (2E)-3-(1-{[5-{1-[(Dimethylamino)methyl]cyclobutyl}-3-(2,4,6-trichlorophenyl)-1,2-oxazol-4-yl]carbonyl}-3-methyl-1H-indol-4-yl)prop-2-enoic acid] | 61 nM | 158 nM | 
16 | C=CC(=O)N1CCC(c2onc(-c3c(Cl)cc(Cl)cc3Cl)c2C(=O)n2cc(C)c3c(/C=C/C(=O)O)cccc32)(N(C)C)CC1 [Example 126] | 8 nM | 149 nM | 
17 | O=C(O)/C=C/c1cccc2c1ccn2C(=O)c1c(-c2c(Cl)cc(Cl)cc2Cl)noc1C1(F)COC1 [Example 6, (2E)-3-(1-{[5-(3-Fluorooxetan-3-yl)-3-(2,4,6-trichlorophenyl)-1,2-oxazol-4-yl]carbonyl}-1H-indol-4-yl)prop-2-enoic acid] | 459 nM | 151 nM | 
18 | Cc1cn(C(=O)c2c(-c3c(Cl)ccc(F)c3Cl)noc2C(C)C)c2cccc(/C=C/C(=O)O)c12 [Example 30, (2E)-3-(1-{[3-(2,6-Dichloro-3-fluorophenyl)-5-(propan-2-yl)-1,2-oxazol-4-yl]carbonyl}-3-methyl-1H-indol-4-yl)prop-2-enoic acid] | 350 nM | 114 nM | 
19 | C=CC(=O)N1CCC(O)(c2onc(-c3c(Cl)cc(Cl)cc3Cl)c2C(=O)n2cc(C)c3c(/C=C/C(=O)O)cccc32)CC1 [Example 123] | 13 nM | 149 nM | 
20 | C=Cc1ccc(-c2onc(-c3c(Cl)cc(Cl)cc3Cl)c2C(=O)n2ccc3c(/C=C/C(=O)O)cccc32)cn1 [Example 73, (2E)-3-(1-{[5-(6-Ethenylpyridin-3-yl)-3-(2,4,6-trichlorophenyl)-1,2-oxazol-4-yl]carbonyl}-1H-indol-4-yl)prop-2-enoic acid] |  | 208 nM | 7 nM
21 | Cc1cn(C(=O)c2c(-c3c(Cl)cc(Cl)cc3Cl)noc2C(C)(C)N(C)C)c2cccc(/C=C/C(=O)O)c12 [Example 91, (2E)-3-[1-({5-[2-(Dimethylamino)propan-2-yl]-3-(2,4,6-trichlorophenyl)-1,2-oxazol-4-yl}carbonyl)-3-methyl-1H-indol-4-yl]prop-2-enoic acid] | 23 nM | 120 nM | 
22 | CN(C)c1onc(-c2c(Cl)cc(Cl)cc2Cl)c1C(=O)n1ccc2c(/C=C/C(=O)O)cccc21 [Example 138] | 288 nM | 88 nM | 
23 | C=CC(=O)N1CC(C)(c2onc(-c3c(Cl)cc(Cl)cc3Cl)c2C(=O)n2ccc3c(/C=C/C(=O)O)cccc32)C1 [Example 98] | 34 nM | 116 nM | 
24 | CC(C)c1onc(-c2c(Cl)cc(Cl)cc2Cl)c1C(=O)n1ccc2c(/C=C/C(=O)O)cccc21 [Example 26, (2E)-3-(1-{[5-(Propan-2-yl)-3-(2,4,6-Trichlorophenyl)-1,2-oxazol-4-yl]carbonyl}-1H-indol-4-yl)prop-2-enoic acid] | 248 nM | 253 nM | 
